Reference: US10759785B2, “Compounds” (ENTERPRISE THERAPEUTICS LIMITED, priority 2016, dated 2020)

How the values were obtained:
ENaC [1] = biological target: T1, ENaC (Homo sapiens, UniProt P37088+P51168+P51170); assay: Short circuit current assay to determine ENaC blocker potency in human bronchial epithelial cells; type: cell-based; settings: 50% inhibition of total amiloride-sensitive ISC, HBECs, apical addition; read-out: Averages. ENaC Ic50 μm Avg
T1 construct: host or cells: primary human bronchial epithelial cells (HBECs) differentiated at an air-liquid interface
T1 sequence (P37088 1-669): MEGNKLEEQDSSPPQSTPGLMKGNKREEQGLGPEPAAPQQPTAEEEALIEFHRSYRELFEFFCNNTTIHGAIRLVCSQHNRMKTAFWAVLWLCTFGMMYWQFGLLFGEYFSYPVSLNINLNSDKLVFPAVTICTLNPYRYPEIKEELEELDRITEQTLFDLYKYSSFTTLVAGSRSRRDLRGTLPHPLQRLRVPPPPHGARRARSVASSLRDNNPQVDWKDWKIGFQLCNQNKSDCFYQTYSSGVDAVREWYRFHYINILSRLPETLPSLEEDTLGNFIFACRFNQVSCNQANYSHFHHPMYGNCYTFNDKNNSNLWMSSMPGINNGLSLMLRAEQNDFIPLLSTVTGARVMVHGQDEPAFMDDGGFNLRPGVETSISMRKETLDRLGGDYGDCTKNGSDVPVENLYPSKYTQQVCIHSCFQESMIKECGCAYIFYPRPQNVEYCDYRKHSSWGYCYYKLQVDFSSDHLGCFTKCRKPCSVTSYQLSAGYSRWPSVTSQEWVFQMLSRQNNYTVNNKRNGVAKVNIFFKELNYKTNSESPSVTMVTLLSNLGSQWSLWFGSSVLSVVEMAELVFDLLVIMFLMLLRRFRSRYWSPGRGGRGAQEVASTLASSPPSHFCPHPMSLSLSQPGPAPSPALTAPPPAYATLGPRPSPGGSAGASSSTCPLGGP
T1 sequence (P51168 1-640): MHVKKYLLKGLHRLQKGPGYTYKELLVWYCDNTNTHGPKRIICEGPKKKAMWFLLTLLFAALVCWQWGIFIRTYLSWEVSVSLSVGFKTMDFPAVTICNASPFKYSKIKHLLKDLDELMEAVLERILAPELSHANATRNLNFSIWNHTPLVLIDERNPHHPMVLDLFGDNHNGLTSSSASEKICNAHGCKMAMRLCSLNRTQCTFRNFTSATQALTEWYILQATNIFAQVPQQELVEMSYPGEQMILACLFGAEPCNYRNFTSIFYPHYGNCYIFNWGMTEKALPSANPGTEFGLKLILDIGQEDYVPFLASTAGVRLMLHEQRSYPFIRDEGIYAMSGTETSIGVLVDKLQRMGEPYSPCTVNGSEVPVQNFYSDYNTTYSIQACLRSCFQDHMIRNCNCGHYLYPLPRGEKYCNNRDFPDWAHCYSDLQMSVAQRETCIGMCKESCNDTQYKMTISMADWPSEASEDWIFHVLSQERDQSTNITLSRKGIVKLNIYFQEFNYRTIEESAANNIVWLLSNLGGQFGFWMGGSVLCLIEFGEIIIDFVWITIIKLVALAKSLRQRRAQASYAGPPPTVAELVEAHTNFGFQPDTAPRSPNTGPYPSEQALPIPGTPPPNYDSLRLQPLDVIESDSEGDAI
T1 sequence (P51170 1-649): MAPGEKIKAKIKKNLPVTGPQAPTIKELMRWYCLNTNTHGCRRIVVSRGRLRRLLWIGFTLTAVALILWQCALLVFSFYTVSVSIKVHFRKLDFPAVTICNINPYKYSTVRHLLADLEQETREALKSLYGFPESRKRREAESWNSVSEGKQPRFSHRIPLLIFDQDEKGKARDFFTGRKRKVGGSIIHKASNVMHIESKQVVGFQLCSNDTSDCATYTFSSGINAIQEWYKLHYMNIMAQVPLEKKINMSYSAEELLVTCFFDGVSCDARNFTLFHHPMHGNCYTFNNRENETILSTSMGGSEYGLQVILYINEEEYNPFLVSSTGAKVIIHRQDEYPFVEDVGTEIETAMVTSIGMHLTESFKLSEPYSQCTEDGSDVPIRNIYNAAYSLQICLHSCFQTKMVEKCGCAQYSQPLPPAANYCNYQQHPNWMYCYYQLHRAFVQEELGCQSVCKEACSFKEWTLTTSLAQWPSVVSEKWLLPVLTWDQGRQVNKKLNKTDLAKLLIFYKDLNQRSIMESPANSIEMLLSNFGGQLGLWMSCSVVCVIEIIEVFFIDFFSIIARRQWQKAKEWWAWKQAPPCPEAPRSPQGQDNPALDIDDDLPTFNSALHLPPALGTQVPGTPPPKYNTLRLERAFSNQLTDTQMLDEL
Protocol: Example 27—Short Circuit Current Assay to Determine ENaC Blocker Potency in Human Bronchial Epithelial Cells
Human bronchial epithelial cells (HBECs) (Lonza, UK) were cultured using a modification of the method described by Coote et al, (2008). Cells were seeded into plastic T-75 flasks and grown in Bronchial Epithelial Cell Growth Medium (BEGM) (Lonza, UK) supplemented with bovine pituitary extract (52 ng/mL), hydrocortisone (0.5 μg/mL), human recombinant Epidermal Growth Factor (0.5 ng/mL), epinephrine (0.5 ng/mL), transferrin (10 ng/mL), insulin (5 ng/mL), retinoic acid (0.1 ng/mL), triiodothyronine (6.5 ng/mL), gentamycin (50 μg/mL) and amphotericin-B (50 ng/mL). Medium was changed every 48 hours until cells were 90% confluent. Cells were then passaged and seeded (8.25×10^5 cells/insert) onto polycarbonate Snapwell™ inserts (Costar, UK) in differentiation media containing 50% DMEM in BGEM with the same supplements as above but without triiodothyronine and a final retinoic acid concentration of 50 nM (all-trans retinoic acid; Sigma-Aldrich, UK). Cells were maintained submerged for the first 7 days in culture after which time they were exposed to an apical air interface for the remainder of the culture period. From the first day of establishment of an ALI, HBEC were fed with a DMEM:HAMS F-12 (1:1) media containing 2% Ultroser G (Pall BioSepra, France) with gentamycin (50 μg/mL) and amphotericin B (50 ng/mL). Cells were used for short-circuit current assay between days 14-21 after the establishment of the ALI. At all stages of culture, cells were maintained at 37′C in 5% CO2 in an air incubator.
Short-Circuit Current (ISC) Measurements
Snapwell inserts were mounted in Costar Vertical Diffusion Chambers (Costar, UK) and were bathed with continuously gassed Ringer solution (5% CO2 in O2; pH 7.4) maintained at 37° C. containing (in mM): 120 NaCl, 25 NaHCO3, 3.3 KH2PO4, 0.8 K2HPO4, 1.2 CaCl2, 1.2 MgCl2 and 10 glucose. The solution osmolarity was always between 280-300 mOsm/kg H2O for all physiological salt solutions used. Cells were voltage clamped to 0 mV (model EVC4000, WPI). Transepithelial resistance (RT) was measured by applying a 2 mV pulse at 30 s intervals and calculating RT by Ohm's law. Data were recorded using a PowerLab workstation (ADInstruments, UK).
ENaC blocker compounds were added to the apical chamber from a 1000-fold stock solution (prepared in DMSO) to achieve a cumulative concentration response in terms of the inhibition of the basal ISC. At the completion of the concentration response, a supra-maximal concentration of amiloride (10 μM) was added. The concentration of test compound that induced a 50% inhibition of the total amiloride-sensitive ISC (IC50) was calculated using GraphPad Prism v6.05.

[2] = Hepatic stability (human cryopreserved hepatocytes); type: in vitro ADME; settings: cryopreserved hepatocytes, pH 7.4, 1 μM test compound, 1×10^6 cells/mL, 37° C., read-out: Averages. Hep Half Life Human
Protocol: (§1) Example 29—Hepatic Stability
(§2) Cryopreserved hepatocytes (rat and human) were obtained from Bioreclamation. Test compound stock solutions in DMSO (10 mM) were diluted with DMSO to 4 mM. Further dilution was completed to achieve a 100 μM stock (5 μL of 4 mM in 195 μL of 50:50 DMSO:hepatocyte buffer). Final test compound concentration in incubation was 1 μM. The following probe substrates were used: testosterone and carbamazepine at a final incubation concentration of 1 μM. Hepatocyte buffer was prepared (Williams E media containing phenol red and Glutamax™, 15 mM HEPES, warmed to 37° C., pH7.4 with NaOH). Cells were removed from liquid nitrogen, thawed in a waterbath, decanted into 50 mL of pre-warmed Cryopreserved Hepatocyte Recovery Media (LifeTechnologies) and centrifuged. Supernatant fraction was removed, cells were re-suspended in hepatocyte buffer and counted by trypan blue exclusion. Cell viability of >80% was required for all assays. Cells were re-suspended to 1×10^6/mL and 198 μL cell suspension added to each 96-well. 2 μL of 100 μM compound stock solution was added to relevant wells to initiate the incubation. A no cell control and two replicates of each test compound was included in every assay. Cells were incubated at 37° C., on a shaker set at 300 rpm. At each timepoint (0, 15, 30, 45, 60, 90 min) 20 μL of sample was removed from the 96-well and added to 80 μL of quench solution (acetonitrile containing 0.1% formic acid and imipramine/labetalol, 200 nM). Samples were diluted 1:1 with water using the Janus Robot and analysed by LC-MS/MS.

[3] = Hepatic stability (rat cryopreserved hepatocytes); type: in vitro ADME; settings: pH 7.4, 1 μM test compound, 1×10^6 cells/mL, 37° C., read-out: Averages. Hep Half Life Rat
Protocol: as §1, §2

[4] = Microsomal stability (human microsomes); type: in vitro ADME; settings: pH 7.4, 1 μM test compound, 0.5 mg/mL protein, 1 mM NADPH, 37° C., read-out: Averages. Mic Half Life Human
Protocol: (§3) Example 28—Microsomal Stability
(§4) Microsomes (rat and human) were obtained from Bioreclamation. Test compound stock solutions in DMSO (10 mM) were diluted with DMSO to 2 mM. Further dilution was completed to achieve a 100 μM stock (final concentrations; 91.5% Acetonitrile: 8.5% DMSO). Final test compound concentration in incubation was 1 μM (<0.1% DMSO). The following probe substrates were used: verapamil, propranolol, metoprolol and phenacetin (rat) at a final incubation concentration of 1 μM. Assay buffer—Solution 1: 17.4 g potassium phosphate dibasic anhydrous (K2HPO4, 0.1 M) dissolved in 1 L deionised water. Solution 2: 13.6 g potassium phosphate monobasic anhydrous (KH2PO4, 0.1 M) dissolved in 1 L deionised water. Potassium phosphate solutions 1 and 2 were combined to form a pH 7.42 solution at 37° C. pH 7.4 with 2 mM magnesium chloride. NADPH (10 mM)—diluted in deionised water. Frozen microsomes were thawed at 37° C. Microsomes were diluted in assay buffer to achieve a final protein concentration of 0.5 mg/mL and 1 mM NADPH. The following procedure was completed on a Perkin Elmer Janus robotic platform in 96 well format: The microsomal incubation plate was transferred to a heater shaker at 300 rpm and solution heated to 37° C. for 10 min pre-warm. A no co-factor control at 0 and 45 min and one replicates of each test compound was included in every assay. Microsomes were incubated at 37° C., on a shaker set at 300 rpm throughout the assay. At each timepoint (0, 5, 15, 30, 45 min) 50 μL of sample was removed from the 96-well and added to 200 μL of quench solution (acetonitrile containing 0.1% formic acid and imipramine/labetalol, 200 nM). Samples were diluted 1:1 with water using the Janus Robot and analysed by LC-MS/MS.

[5] = Microsomal stability (rat microsomes); type: in vitro ADME; settings: pH 7.4, 1 μM test compound, 0.5 mg/mL protein, 1 mM NADPH, 37° C., read-out: Averages. Mic Half Life Rat
Protocol: as §3, §4

ENaC [6] = biological target: T1, ENaC; settings: cited from earlier work

## CCn1c(CNC(=O)c2nc(Br)cnc2N)[n+](CC)c2ccc(C(=O)O)cc21 [Example 16, 2-{[(3-amino-6-bromopyrazin-2-yl)formamido]methyl}-6-carboxy-1,3-diethyl-1H-1,3-benzodiazol-3-ium bromide]
ENaC [1]
  IC50: 0.014 µM

## CCn1c(CNC(=O)c2nc(Br)cnc2N)[n+](C)c2ccc(OC)cc21.[I-] [Example 1, 2-{[(3-amino-6-bromopyrazin-2-yl)formamido]methyl}-1-ethyl-6-methoxy-3-methyl-1H-1,3-benzodiazol-3-ium iodide]
[2]
  half-life at 1 μM: 44 min
[3]
  half-life at 1 μM: 6 min
[4]
  half-life at 1 μM: 12 min
[5]
  half-life at 1 μM: 3 min

## N=C(N)NC(=O)c1nc(Cl)c(N)nc1N [Amiloride]
ENaC [6]; healthy controls and patients with CF
  Effect on MCC: increase MCC
ENaC [6]; inhaled amiloride
  Effect on clinical endpoints: lack of a robust effect
